Results taken from patent US20260124170A1, “PHARMACEUTICAL COMPOSITION COMPRISING METABOLITE OF ENAVOGLIFLOZIN, AND USE THEREOF” (DAEWOONG PHARMACEUTICAL CO., LTD., priority 2022, published 2026).
Where “and” joins values, the source holds several entries; their conditions need not be identical. Identical values can stand only once. Like-named read-outs stand apart in the source and are kept apart here. Marks after values point to notes of the source that are not given here.

Experiments:
Assay type in all cases: cell-based
SGLT2 [1] = target: T1, SGLT2 (Homo sapiens, UniProt P31639); assay: SGLT2 inhibition with varied substrate AMG concentration (Dixon / L-B plot); conditions: for Inhibition mechanism, SGLT2: CHO-SGLT2, varied AMG concentration; for Ki: from slope of L-B plot, CHO-SGLT2
T1 construct: expressed in transfected cells
T1 sequence (P31639 1-672): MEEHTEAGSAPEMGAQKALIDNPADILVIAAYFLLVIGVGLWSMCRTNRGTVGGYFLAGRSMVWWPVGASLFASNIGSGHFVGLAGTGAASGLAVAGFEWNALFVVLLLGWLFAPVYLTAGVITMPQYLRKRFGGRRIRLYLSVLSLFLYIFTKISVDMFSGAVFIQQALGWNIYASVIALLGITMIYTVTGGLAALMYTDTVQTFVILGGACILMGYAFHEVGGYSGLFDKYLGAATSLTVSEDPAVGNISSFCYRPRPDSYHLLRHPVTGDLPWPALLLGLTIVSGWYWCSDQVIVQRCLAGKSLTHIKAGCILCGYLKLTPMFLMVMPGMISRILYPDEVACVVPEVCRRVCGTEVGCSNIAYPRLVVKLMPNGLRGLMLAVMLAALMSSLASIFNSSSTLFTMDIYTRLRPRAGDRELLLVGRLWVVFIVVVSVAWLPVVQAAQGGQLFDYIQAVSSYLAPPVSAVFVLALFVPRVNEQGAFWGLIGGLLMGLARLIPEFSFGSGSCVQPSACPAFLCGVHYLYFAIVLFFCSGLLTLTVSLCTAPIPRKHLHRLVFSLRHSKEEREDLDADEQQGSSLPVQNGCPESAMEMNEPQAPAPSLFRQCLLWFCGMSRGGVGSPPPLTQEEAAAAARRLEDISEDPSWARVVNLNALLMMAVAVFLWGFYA
Procedure: From these, the inhibition mechanism was confirmed, and the inhibition constant was calculated.

SGLT2 [2] = target: T1, SGLT2; assay: Whole-cell patch clamp glucose current, binding and dissociation, CHO-SGLT2; conditions: for Dissociation degree T1/2, off (s), SGLT2: washout
Procedure: When SGLT1- and SGLT2-overexpressing cell lines (CHO-SGLT1, CHO-SGLT2 stable cells) were cultured to reach 60% confluency, the cells were treated with 0.05% trypsin to detach the cells from the bottom of the plate, suspended in 200 μL of culture medium, and used at room temperature.
Glucose reabsorption is induced by the Na^+ electrochemical potential gradient in the kidneys via SGLT2, and glucose diffuses across the cell membrane into the blood via glucose transporter 2 (GLUT-2), which enables facilitated glucose transport. While one Na^+ ion is absorbed per glucose molecule through SGLT2, two Nations are absorbed per glucose molecule through SGLT1. Therefore, by varying the composition of the buffer, only the glucose current was recorded, excluding the Na^+ current.
The experiment was conducted as described below.
1) Using a Narishige puller, a glass micropipette was made in two stages of 62.7° C. and 57° C., filled with an internal solution (145 mM CsCl, 5 mM NaCl, 10 mM HEPES, 11 mM ethylene glycol-bis(2-aminoethylether)-N,N,N′,N′-tetraacetic acid (EGTA), pH 7.2), and then inserted into the Ag/AgCl2 electrode of the patch clamp head-stage.
2) SGLT1 or SGLT2 cells were seeded on a chamber which was coated with poly-L-lysine in advance, and then an external solution (150 mM NaCl, 10 mM HEPES, 1 mM CaCl2), 1 mM MgCl2, pH 7.4) was flowed to ensure that the cells were sufficiently submerged. A temperature control device was used to maintain the temperature of the chamber at 36.5±0.5° C.
3) Using a micromanipulator, the glass micropipette was attached to the cell membrane to create a giga-ohm seal, which was then ruptured to detach the cell membrane (whole-cell mode, 3 to 5 MΩ).
4) The cells were fixed at −60 mV (holding potential), and the current [I^total current (Na^+/Glucose current (pA))] was measured in a gap-free data acquisition mode.
5) The external solution was continuously flowed into the chamber containing the cells, and the current (I^total) was recorded for about 30 seconds to 1 minute (stabilization), and then the external solution with added glucose (Na^+/Glucose external) (150 mM NaCl, 10 mM HEPES, 1 mM CaCl2), 1 mM MgCl2, 100 mM glucose, pH 7.4) was flowed to record the glucose current (I^glucose). Then, the cells were exposed to the external solution with added glucose containing one concentration of the compound for two minutes, and the glucose current suppressed by the compound was recorded.
7) After confirming the recovery of the current, the solution was replaced with a sodium-free external solution (Na^+-free external) (150 mM Choline-Cl, 1 mM CaCl2), 1 mM MgCl2, pH 7.4) and the Na^+ current was recorded. After the current was stabilized, the solution was replaced with the external solution to record the current in the resting state when the cells were not stimulated, thereby securing the reliability of the experimental system.
For statistical analysis of data, pCLAMP10.4 (Molecular Devices, LLC, San Jose, CA, USA) or Origin6.0 (OriginLab, Northampton, MA, USA) was used.
The test results were expressed as the mean±SD of the mean. Statistical significance was verified using the nonparametric Kruskal-Wallis test using Statistical Package for the Social Sciences (SPSS) for Windows (version 26.0, IBM Corp., Armonk, NY, USA). The significance level was set at p<0.05.

SGLT2 [3] = target: T1, SGLT2; assay: Change in SGLT2 inhibition according to drug pretreatment time (CHO-SGLT2); conditions: for IC50: CHO-SGLT2; for Change in SGLT2 inhibition as exposure time increased: pretreatment 0, 1, 2 h, one-way ANOVA
Excerpt: All data values are expressed as the mean±SD of […].

[4] = IC50 according to pretreatment time (nM), SGLT2, 1 h, 1 h pretreatment in sodium-free buffer
[5] = IC50 according to pretreatment time (nM), SGLT2, 2 h, 2 h pretreatment in sodium-free buffer
[6] = no pretreatment, read-out: IC50 according to pretreatment time (nM), SGLT2, 0 h

| Inhibition mechanism, SGLT2 (SGLT2 [1]) | Ki (SGLT2 [1]) [nM] | Dissociation from SGLT2, times slower than dapagliflozin (SGLT2 [2]; ratio of T1/2,off) | Binding affinity T1/2, on (s), SGLT2 (SGLT2 [2]; treatment concentration 100 μM) [s] | Dissociation degree T1/2, off (s), SGLT2 (SGLT2 [2]; treatment concentration 100 μM) | Dissociation degree T1/2, off (s), SGLT2 (SGLT2 [2]; treatment concentration 100 μM, listed as enavogliflozin) [s] | IC50 (SGLT2 [3]; [4]) [nM] | IC50 (SGLT2 [3]; [5]) [nM] | IC50 (SGLT2 [3]; [6]) [nM] | Change in SGLT2 inhibition as exposure time increased (SGLT2 [3]) | Dissociation rate from SGLT2, times slower than enavogliflozin (SGLT2 [2]; ratio of T1/2,off) [times] | Binding affinity T1/2, on (s), SGLT2 (SGLT2 [2]; treatment concentration 200 μM) | Dissociation degree T1/2, off (s), SGLT2 (SGLT2 [2]; treatment concentration 200 μM) | SMILES |
| --- | --- | --- | --- | --- | --- | --- | --- | --- | --- | --- | --- | --- | --- |
| Competitive inhibition | 0.411 | about 2.8 times | 29.5 ± 5.5 | 745.5^+, # s | 745.5 | 0.285 ± 0.188 | 0.519 ± 0.222 | 0.388 ± 0.119 | did not increase or significantly change | – | – | – | OC[C@H]1O[C@@H](c2cc(Cc3ccc(C4CC4)cc3)c(Cl)c3c2CCO3)[C@H](O)[C@@H](O)[C@@H]1O [Enavogliflozin, (2S,3R,4R,5S,6R)-2-(7-chloro-6 (4-cyclopropylbenzyl)-2,3-dihydrobenzofuran-4-yl)-6-(hydroxymethyl)tetrahydro-2H-pyran-3,4,5-triol] |
| Competitive inhibition | 7.49 | – | – | – | – | 5.24 ± 1.1 | 9.95 ± 3.14 | 8.44 ± 0.77 | did not increase or significantly change | 2 | 52.5 ± 3.8*^, + s | 369.9 s and 369.9 ± 56.5 ^ s | OC[C@H]1O[C@@H](c2cc(Cc3ccc(C4CC4)cc3)c(Cl)c3c2CC(O)O3)[C@H](O)[C@@H](O)[C@@H]1O (stereo partly drawn) [M1, (2S,3R,4R,5S,6R)-2-(7-chloro-6-(4-cyclopropylbenzyl)-2-hydroxy-2,3-dihydrobenzofuran-4-yl)-6-(hydroxymethyl)tetrahydro-2H-pyran-3,4,5-triol] |
| Competitive inhibition | 6.18 | – | – | – | – | 3.63 ± 0.83 | 3.24 ± 0.81 | 2.75 ± 0.36 | did not increase or significantly change | 1.38 | 51.8 ± 10.5*^, + s | 540.4 s and 540.4 ± 217.0^+, # s | OC[C@H]1O[C@@H](c2cc(Cc3ccc(C4(O)CC4)cc3)c(Cl)c3c2CCO3)[C@H](O)[C@@H](O)[C@@H]1O [M2, (2S,3R,4R,5S,6R)-2-(7-chloro-6-(4-(1-hydroxycyclopropyl)benzyl)-2,3-dihydrobenzofuran-4-yl)-6-(hydroxymethyl)tetrahydro-2H-pyran-3,4,5-triol] |
